Assay results: paper PMC11945486, “TAS1R2/TAS1R3 Single-Nucleotide Polymorphisms Affect Sweet Taste Receptor Activation by Sweeteners: The SWEET Project” (Nutrients, 2025)
Like-named read-outs stand apart in the source and are kept apart here. One block for each molecule: values may come before it. No end group written: not given here.

Target: T1, human TAS1R2-WT/TAS1R3-G367C (Homo sapiens, UniProt Q7RTX0+Q8TE23, G367C)
T1 construct: expressed in transfected cells; host or cells: HEK293T stably expressing Gα16gust44
T1 sequence (Q8TE23 20-839): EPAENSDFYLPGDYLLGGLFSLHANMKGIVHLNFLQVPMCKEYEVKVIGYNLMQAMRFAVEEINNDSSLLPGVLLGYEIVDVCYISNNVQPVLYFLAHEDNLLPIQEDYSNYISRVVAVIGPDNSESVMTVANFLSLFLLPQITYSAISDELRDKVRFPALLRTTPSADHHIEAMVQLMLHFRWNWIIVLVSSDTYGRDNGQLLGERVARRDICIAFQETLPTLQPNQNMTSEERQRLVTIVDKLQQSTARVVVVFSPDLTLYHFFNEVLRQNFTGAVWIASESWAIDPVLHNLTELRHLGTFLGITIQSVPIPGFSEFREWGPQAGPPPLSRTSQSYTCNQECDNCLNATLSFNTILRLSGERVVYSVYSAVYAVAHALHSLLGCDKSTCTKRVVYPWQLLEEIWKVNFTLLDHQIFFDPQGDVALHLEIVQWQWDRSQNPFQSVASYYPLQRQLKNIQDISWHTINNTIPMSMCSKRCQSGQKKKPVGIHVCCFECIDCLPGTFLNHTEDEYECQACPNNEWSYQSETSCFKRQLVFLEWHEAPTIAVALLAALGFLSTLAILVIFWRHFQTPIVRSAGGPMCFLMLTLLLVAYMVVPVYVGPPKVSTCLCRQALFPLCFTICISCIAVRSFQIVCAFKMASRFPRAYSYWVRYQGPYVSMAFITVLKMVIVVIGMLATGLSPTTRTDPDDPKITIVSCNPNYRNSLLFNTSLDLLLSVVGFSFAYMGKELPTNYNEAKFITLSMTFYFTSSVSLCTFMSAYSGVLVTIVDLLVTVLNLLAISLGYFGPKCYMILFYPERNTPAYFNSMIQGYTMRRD
T1 sequence (Q7RTX0 21-852 G367C): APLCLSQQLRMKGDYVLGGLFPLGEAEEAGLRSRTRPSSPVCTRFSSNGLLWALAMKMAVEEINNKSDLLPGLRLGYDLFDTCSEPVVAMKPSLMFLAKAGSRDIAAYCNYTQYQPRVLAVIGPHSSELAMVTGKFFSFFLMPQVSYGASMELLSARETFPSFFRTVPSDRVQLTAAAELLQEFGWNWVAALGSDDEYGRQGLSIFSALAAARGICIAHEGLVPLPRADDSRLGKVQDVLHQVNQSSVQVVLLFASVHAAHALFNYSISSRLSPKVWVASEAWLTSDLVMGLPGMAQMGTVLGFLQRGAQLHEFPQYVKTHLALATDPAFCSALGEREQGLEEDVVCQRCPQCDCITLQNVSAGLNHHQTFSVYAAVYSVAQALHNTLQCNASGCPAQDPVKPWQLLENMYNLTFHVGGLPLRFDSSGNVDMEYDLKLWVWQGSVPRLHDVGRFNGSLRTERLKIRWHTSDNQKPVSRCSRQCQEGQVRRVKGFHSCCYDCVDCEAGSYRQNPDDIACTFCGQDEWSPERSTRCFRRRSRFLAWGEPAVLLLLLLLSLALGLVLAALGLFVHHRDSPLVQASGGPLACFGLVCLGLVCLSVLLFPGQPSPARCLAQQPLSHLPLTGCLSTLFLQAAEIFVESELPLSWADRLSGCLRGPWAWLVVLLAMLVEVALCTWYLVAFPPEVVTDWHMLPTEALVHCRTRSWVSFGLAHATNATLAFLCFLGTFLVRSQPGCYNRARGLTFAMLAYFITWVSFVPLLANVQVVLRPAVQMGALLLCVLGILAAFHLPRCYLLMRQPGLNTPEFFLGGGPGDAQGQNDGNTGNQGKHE
Assay: Calcium mobilisation assay, TAS1R2-WT with TAS1R3 variant G367C
Assay type: cell-based
Conditions: for Max ΔF/F0: maximal signal amplitude
From the text: The coding sequences for TAS1R2 and TAS1R3 were commercially synthesised, and the human codon was optimised for expression in human cells. The coding sequences of human TAS1R2 and TAS1R3 were subcloned and inserted into the mammalian expression vectors pcDNA6/myc-HisA and pcDNA4/myc-HisA (Invitrogen; Thermo Fisher Scientific; Illkirch, France) between the EcoRI and NotI restriction sites, generating the plasmids pcDNA6-TAS1R2 and pcDNA4-TAS1R3, respectively. To increase protein expression in mammalian cells, an upstream start codon was used, which was a sequence called MAX, corresponding to the QBI SP163 element also described in pcDNA4-HisMax (Invitrogen; Thermo Fisher Scientific; Illkirch, France). To measure the expression level of the receptor by immunohistochemistry, we used the FLAG sequence ([…]) in the C-terminal position, which encodes the FLAG tag epitope. SNP variants of TAS1R2 and TAS1R3 were constructed based on […], respectively, using site-directed mutagenesis (Genewiz; Leipzig, Germany).
The HEK293T cells were kindly provided by Jay P. Slack (Givaudan Flavors Corporation; Cincinnati, OH, USA). HEK293T cells stably transfected with Gα16gust44 [43, 67] were seeded in poly-D-lysine-coated clear-bottom black 96-well plates (0.35 × 10^5 cells/well) in high-glucose DMEM supplemented with 2 mM GlutaMAX, 10% dialysed foetal bovine serum with penicillin/streptomycin and G418 (400 μg/mL) at 37 °C and 6.3% CO2 in a humidified atmosphere as previously reported. […] As a negative control, HEK293T cells were mock-transfected with the empty expression vector. After a further 24 h of incubation, the HEK293T cells were washed with C1 buffer (130 mM NaCl, 5 mM KCl, 10 mM HEPES pH 7.4 and 2 mM CaCl2). The 96-well plates containing the cells were then stimulated with sweet-tasting compounds. […] Different concentration ranges were tested depending on the sweet compound injected. The Ca^2+ changes were expressed as fractional changes in fluorescent light intensity: ΔF/F = (F − F0)/F0, where F was the fluorescent light intensity at each point, and F0 was the value of emitted fluorescent light prior to stimulus application. To calculate dose–response relationships, the changes in fluorescence upon stimulus application were averaged, mock-subtracted and baseline-corrected. The dose–response data obtained were adjusted using a 4-parameter logistic equation. The half-maximal effective concentrations (EC50 values) and maximal signal amplitudes were calculated using SigmaPlot software (version 15.0) (Systat Software; San Jose, CA, USA).
For in vitro calcium mobilisation assay performed on hTAS1R2-SNPs, hTAS1R3-SNPs and mTAS1R3-I60T, 6 to 7 concentrations were tested for each sweet compound, plus buffer alone. All concentration–receptor combinations were measured in duplicate, and each experiment was repeated at least 4 times (8 wells/concentration). Results were expressed for each concentration as ΔF/F mean ± SEM and represented as dose–response curves.

Molecule: CC1=CC(=O)NS(=O)(=O)O1 [Acesulfame K, acesulfame K]
- R1 = Variant EC50/WT EC50: 0.7
- Max ΔF/F0: 0.06 ± 0.01
- EC50 (read-out: EC50): 443 ± 121 µM

Molecule: O=S(=O)(O)NC1CCCCC1 [Cyclamate, cyclamate]
- EC50 (read-out: EC50): 2120 ± 34 µM

Molecule: C[C@H](CC[C@@H](O[C@@H]1O[C@H](CO[C@@H]2O[C@H](CO)[C@@H](O)[C@H](O)[C@H]2O)[C@@H](O)[C@H](O)[C@H]1O[C@@H]1O[C@H](CO)[C@@H](O)[C@H](O)[C@H]1O)C(C)(C)O)[C@H]1CC[C@@]2(C)[C@@H]3CC=C4[C@@H](CC[C@H](O[C@@H]5O[C@H](CO[C@@H]6O[C@H](CO)[C@@H](O)[C@H](O)[C@H]6O)[C@@H](O)[C@H](O)[C@H]5O)C4(C)C)[C@]3(C)[C@H](O)C[C@]12C [Mogroside V, mogroside V]
- R1 = Variant EC50/WT EC50: 2.6
- Max ΔF/F0: 0.60 ± 0.02
- EC50 (read-out: EC50): 82.4 ± 5.2 µM

Molecule: COc1ccc(CCC(=O)c2c(O)cc(O[C@@H]3O[C@H](CO)[C@@H](O)[C@H](O)[C@H]3O[C@@H]3O[C@@H](C)[C@H](O)[C@@H](O)[C@H]3O)cc2O)cc1O [NHDC, neohesperidin dihydrochalcone]
- R1 = Variant EC50/WT EC50: 1.6
- Max ΔF/F0: 0.75 ± 0.05
- EC50 (read-out: EC50): 81.3 ± 13.1 µM

Molecule: COC(=O)[C@H](Cc1ccccc1)NC(=O)[C@H](CC(=O)O)NCCC(C)(C)C [Neotame]
- R1 = Variant EC50/WT EC50: 1.6
- Max ΔF/F0: 0.31 ± 0.01
- EC50 (read-out: EC50): 1.95 ± 0.09 µM

Molecule: C=C(C)[C@@H]1CC=C(/C=N/O)CC1 [Perillartine, perillartine]
- R1 = Variant EC50/WT EC50: 2.3
- Max ΔF/F0: 1.49 ± 0.24
- EC50 (read-out: EC50): 32 ± 17.1 µM

The next lines start with the values.

- R1 = Variant EC50/WT EC50: 1.2
- Max ΔF/F0: 0.35 ± 0.01
- EC50 (read-out: EC50): 47.3 ± 1.9 µM
Molecule: C=C1C[C@@]23CC[C@H]4[C@@](C)(CCC[C@@]4(C)C(=O)O[C@@H]4O[C@H](CO)[C@@H](O)[C@H](O[C@@H]5O[C@H](CO)[C@@H](O)[C@H](O)[C@H]5O)[C@H]4O[C@@H]4O[C@H](CO)[C@@H](O)[C@H](O)[C@H]4O)[C@@H]2CC[C@]1(O[C@@H]1O[C@H](CO)[C@@H](O)[C@H](O[C@@H]2O[C@H](CO)[C@@H](O)[C@H](O)[C@H]2O)[C@H]1O[C@@H]1O[C@H](CO)[C@@H](O)[C@H](O)[C@H]1O)C3 [Rebaudioside M, rebaudioside M]

- R1 = Variant EC50/WT EC50: 1.7
- Max ΔF/F0: 0.32 ± 0.01
- EC50 (read-out: EC50): 182 ± 7 µM
Molecule: OC[C@H]1O[C@H](O[C@]2(CCl)O[C@H](CCl)[C@@H](O)[C@@H]2O)[C@H](O)[C@@H](O)[C@H]1Cl [Sucralose]

- R1 = Variant EC50/WT EC50: 1.6
- EC50 (brazzein): 181.7 ± 6.9 mg/L
- Max ΔF/F0: 0.72 ± 0.01
Molecule: brazzein (QDKCKKVYENYPVSKCQLANQCNYDCKLDKHARSGECFYDEKRNLQCICDYCEY; ends and bridges not checked; cysteine pairing not given here; UniProt P56552 1-54, looked up) [sweet-tasting protein obtained by recombinant production using the yeast Pichia pastoris]

- R1 = Variant EC50/WT EC50: 1.4
- Max ΔF/F0: 0.52 ± 0.01
Molecule: thaumatin

- EC50 (read-out: EC50): 14.8 ± 0.5 µM
B1: thaumatin (protein)
chain: ATFEIVNRCSYTVWAAASKGDAALDAGGRQLNSGESWTINVEPGTKGGKIWARTDCYFDDSGSGICKTGDCGGLLRCKRFGRPPTTLAEFSLNQYGKDYIDISNIKGFNVPMDFSPTTRGCRGVRCAADIVGQCPAKLKAPGGGCNDACTVFQTSEYCCTTGKCGPTEYSRFFKRLCPDAFSYVLDKPTTVTCPGSSNYRVTFCPTA
modifications: Eight disulfides
notes: sweet-tasting plant protein, E957
